{
  "source": "patent US20150037399A1",
  "about": "“NOVEL USE OF PIPOXOLAN AND ITS PHARMACEUTICAL COMPOSITION” (China Medical University, priority 2013, published 2015)",
  "key": {"MMP-9": {"tested_on": "MMP-9", "assay": "Western blot of MMP-9 in PDGF-BB-stimulated VSMCs", "format": "cell-based", "settings": "Rattus norvegicus, VSMC, read-out: inhibition of MMP-9 level", "description": "(§1) The role of matrix metalloproteinase-2/9 (MMP-2/9) and the Ras/MEK/ERK signaling pathways were used to evaluate the effect of pipoxolan on VSMCs migration. The protein expression levels were determined by Western blot analysis. Each vertical bars represented mean±S.E. **p<0.01 and ***p<0.001 compared with control group (n=6 in each group)."}, "PCNA-positive cells": {"tested_on": "PCNA-positive cells", "assay": "Carotid ligation model, PCNA antibody staining of the carotid artery", "format": "in vivo, ICR mice", "settings": "mice", "description": "Male ICR mice, weighing 20 to 25 g, were used as a carotidligation model. Fifteen mice were randomly assigned to 3 treatment groups, five mice for each group. All mice were fasted overnight with free access to water, then anesthetized with zoletil® (25 mg/kg i.p.). Carotid ligation was performed by a midline neck incision and the left common carotid artery exposed. The carotid artery was completely ligated just proximal to the carotid bifurcation, and the right carotid artery served as a non-injured control artery. The incision was closed after ligation, and the animals were allowed to recover. On the day of carotid ligation, mice were randomized into 3 treatment groups and anesthetized as described. Group 1 mice were treated with saline and groups 2 and 3 treated with pipoxolan (10 mg/kg and 30 mg/kg, respectively). Subsequent pipoxolan and saline treatments were given by gastric gavage on the second day after carotid ligation and once daily for 28 days. […] Images were digitized and analyzed with Image-Pro software. The areas of the lumen, internal elastic lamina (IEL), and external elastic lamina (EEL) were determined by computerized planimetry. The intima area was calculated by subtracting the luminal from the IEL area, and media area was determined by subtracting the IEL area from the EEL area. The ratio of intima to media area (I/M ratio) was calculated and analyzed. […]"}, "[1]": {"tested_on": "PDGF-BB-induced migration of A7r5 cells (VSMCs)", "assay": "In vitro wound healing assay", "format": "cell-based", "settings": "PDGF-BB 30 ng/ml, 5, 10 and 15 μM, 24, 48 and 72 hr, dose-dependent", "description": "The VSMCs cell line A7r5 was purchased from Bioresource Collection and Research Center (Hsinchu, Taiwan). A7r5 cells were plated onto 6-well plates in DMEM, supplemented with 10% FBS, 100 units/ml penicillin, 100 μg/ml streptomycin and 2 mM L-glutamine and grown at 37° C. under a humidified 5% CO2 and 95% air at one atmosphere. The effects of pipoxolan on VSMCs migration were evaluated by a wound-healing assay. Platelet-derived growth factor (PDGF) form VMSCs can cause cell migration, which results in intimal hyperplasia. A7r5 cells were plated in 6-well plates (2×10^5 cells per well) and damage was performed with a single scratch wound using a sterile micropipette tip. Cells were then incubated with or without PDGF-BB (30 ng/ml) and pipoxolan (5, 10, 15 μM) in serum-reduced DMEM medium (containing 0.5% fetal bovine serum). The extent of wound closure was determined using a phase contrast microscope at 24, 48, and 72 hr following wounding. Cell migration was expressed by the migration distance of drug-treated cells (mm) divided by the migration distance of untreated cells (mm)."}, "[2]": {"tested_on": "neurological deficits in ischemic rats", "assay": "Evaluation of neurological deficits after ischemia-reperfusion", "format": "in vivo, Sprague-Dawley (SD) rats", "settings": "24 hr after reperfusion; for neurological deficits (score 0-5): mean±SE", "description": "Focal ischemia was induced by occlusion of both common carotid arteries (CCA) and the right middle cerebral artery (MCA). Eighteen rats were randomly assigned to 3 treatment groups, six rats for each group. Group 1 rats were treated with saline and groups 2 and 3 treated with pipoxolan (10 mg/kg and 30 mg/kg, respectively). Rats were fasted overnight with free access to water. Pipoxolan (10, 30 mg/kg) was orally administered 1 hr prior to transient focal cerebral ischemia-reperfusion. Animals then were anesthetized with zoletil® (25 mg/kg i.p.), and the skull was exposed, and a small burr hole was produced over the MCA. Beneath the right MCA, proximal to the major bifurcation of the right MCA, distal to the lenticulostriate arteries, and rostral to the rhinal fissure, a 10-0 nylon monofilament was placed. The artery then was lifted and the nylon filament rotated clockwise. Both CCA were then occluded using a microvascular clip. After 90 minutes of occlusion, reperfusion was established by removing the microvascular clips from the CCA, rotating the nylon monofilament counterclockwise and removing it from beneath the MCA. After 24 hr, all rats were alive and neurobehavioral deficits evaluation and infarct assessment were performed Twenty four hours following reperfusion, neurological function of rats was assessed. The degree of neurological deficits were divided 0-5 (higher score is for more severe neurological deficits) as follows: 0=no neurological deficits, 1=failure to extend left forepaw fully, 2=circling to the left, 3=falling to left, 4=no spontaneous walking with a depressed level of consciousness, and 5=death. Neurological evaluation was done by an observer who was blind to the treatment conditions of the animals. After completion of the neurobehavioral evaluation, rats were deeply anesthetized by an intraperitoneal injection of zoletil® (50 mg/kg) followed by intracardiac perfusion with 200 ml of freezing PBS and animals were then decapitated. The brain was removed and sliced in 2-mm sections using a rodent brain matrix slicer. The sections were stained with 2% 2,3,5-triphenyltetrazoliumchloride (TTC) for 10 min at 37° C. and fixed in 10% formalin. The image of each section was digitized and the infarct area was determined morphometrically using Image-Pro Plus 6.0 (Media Cybernetics, Md., USA)."}, "[3]": {"tested_on": "cleaved caspase-3 positive cells", "assay": "Immunohistochemical staining of cleaved caspase-3 in rat brain slices", "format": "in vivo, Sprague-Dawley (SD) rats", "settings": "rat cortex", "description": "Nine rats were randomly assigned into 3 treatment groups, three rats for each group. Group 1 rats were treated with saline and groups 2 and 3 treated with pipoxolan (10 mg/kg and 30 mg/kg, respectively). Focal ischemia was induced by occlusion of both CCA and the right MCA as previously described. Twenty four hours after focal ischemia, rats were deeply anesthetized by intraperitoneal injection of 50 mg/kg of zoletil® followed by intracardiac perfusion with 200 ml of 0.9% saline, followed by 4% paraformaldehyde in 0.1 M PBS and animals were decapitated. The percentage of positive TUNEL staining cells within areas of the cortex was estimated. Rat brain slices were incubated with anti-caspase-3 antibodies (GTX73093, GeneTex Inc., USA) overnight and immunohistochemical labeled using a NovoLink Polymer Detection System Kit (Leica Microsystems Inc., Newcastle Upon Tyne, UK). The percentage of positive caspase-3 staining cells within the cortex was estimated based on the average number of cells in a defined area."}, "Ras": {"tested_on": "Ras", "assay": "Western blot of Ras in PDGF-BB-stimulated VSMCs", "format": "cell-based", "description": "as §1"}},
  "data": [
    {"smiles": "Cl.O=C1OC(CCN2CCCCC2)OC1(c1ccccc1)c1ccccc1", "note": "(stereo not drawn) [pipoxolan, 5,5-diphenyl-2-(2-piperidin-1-ylethyl)-1,3-dioxolan-4-one hydrochloride]", "values": [
      {"measurement": "inhibition at 5 µM", "setting": "MMP-9; 5 μM", "value": 39.4, "unit": "%"},
      {"measurement": "inhibition at 10 µM", "setting": "MMP-9; 10 μM", "value": 45.4, "unit": "%"},
      {"measurement": "inhibition at 15 µM", "setting": "MMP-9; 15 μM", "value": 36.6, "unit": "%"},
      {"measurement": "percent inhibition of PCNA-positive cells", "setting": "PCNA-positive cells; 10 mg/kg p.o. once daily for 28 days after carotid ligation", "value": 42.11, "unit": "%"},
      {"measurement": "percent inhibition of PCNA-positive cells", "setting": "PCNA-positive cells; 30 mg/kg p.o. once daily for 28 days after carotid ligation", "value": 62.40, "unit": "%"},
      {"measurement": "effect on PDGF-BB-induced cell migration (wound closure)", "setting": "[1]", "value": "markedly inhibited"},
      {"measurement": "reduction of neurological deficits", "setting": "[2]; 10 mg/kg p.o.", "value": 31.25, "unit": "%"},
      {"measurement": "neurological deficits (score 0-5)", "setting": "[2]; 10 mg/kg p.o.", "value": "2.20±0.20"},
      {"measurement": "reduction of neurological deficits", "setting": "[2]; 30 mg/kg p.o.", "value": 46.88, "unit": "%"},
      {"measurement": "neurological deficits (score 0-5)", "setting": "[2]; 30 mg/kg p.o.", "value": "1.7±0.21"},
      {"measurement": "reduction of cleaved caspase 3 positive cells", "setting": "[3]; 10 mg/kg", "value": 37.18, "unit": "%"},
      {"measurement": "reduction of cleaved caspase 3 positive cells", "setting": "[3]; 30 mg/kg", "value": 63.44, "unit": "%"},
      {"measurement": "reduction of Ras protein level", "setting": "Ras; 5 μM", "value": 21, "unit": "%"},
      {"measurement": "reduction of Ras protein level", "setting": "Ras; 10 μM", "value": 24.75, "unit": "%"},
      {"measurement": "reduction of Ras protein level", "setting": "Ras; 15 μM", "value": 24, "unit": "%"}
    ]}
  ]
}
